Assay results as given in publication PMC10016340 (Chemical Science, 2023).
Read-outs that look alike come from different tables or passages of the source.

Key:
[1] = Ultracentrifugation for compound-vesicle binding; details: 100 μM compound, 1 mM DOPG vesicles, 30 min, ultracentrifugation 1 h 40 000 rpm
α-syn = α-syn (Homo sapiens, UniProt P37840); assay: ThT aggregation kinetics of α-syn; assay type: biochemical; details: for Effect on α-syn fibril formation (ThT, words): 300 rpm, 37 °C
[2] = molecular target: αSOs-Alexa488 binding to DOPG liposomes (Homo sapiens, UniProt P37840); assay: FIDA αSO-vesicle binding inhibition assay; details: 5 μM compound, 50 μM DOPG; αSO-vesicle complex without compound ∼60 nm
αSO = αSO (Homo sapiens, UniProt P37840); assay: biochemical; assay type: binding; details: for αSO binding signal in sandwich ELISA vs positive control: 2 mM compound, 1 μg mL^−1 αSOs
αSOs-Alexa488 [3] = molecular target: T1, αSOs-Alexa488 (Homo sapiens, UniProt P37840); assay: FIDA effect of lead compounds on free αSOs; assay type: binding; details: 150 nM αSO, 5 μM compound; 13% without compound
[4] = molecular target: T2, αSO (α-synuclein oligomers) (Homo sapiens, UniProt P37840); assay: Membrane permeabilization; assay type: biochemical; details: for Response in dose-response calcein assay: even at 20 μM
[5] = molecular target: T2, αSO (α-synuclein oligomers); details: cited from earlier work
[6] = tested on: human neuroblastoma cells; details: by inhibiting interactions with lipid membranes; cited from earlier work
αSOs-Alexa488 [7] = molecular target: T1, αSOs-Alexa488; assay: FIDA binding of αSOs to neuronal proteins in solution

For [H]/N=C(\N/C(=N/[H])NCCCCCCNC(=N)NC(=N)Nc1ccc(Cl)cc1)Nc1ccc(Cl)cc1 [A1, Chlorhexidine], the “Percentage of compound bound to DOPG vesicles (pelleted)” value (“Percentage of compound bound” below) [1] was 60–95%, the “Decrease of half-time of fibrillation compared to α-syn alone” value (α-syn; 20 μM α-syn, 20 μM compound) was roughly 2 fold and the “Apparent size (Rh) of αSOs-Alexa488 in the presence of DOPG liposomes and compound” value (“Apparent size (Rh) of αSOs-Alexa488” for short) [2] was roughly 10 nm. The Kd (αSO) was 130 ± 40 µM and the “αSO binding signal in sandwich ELISA vs positive control” value (αSO) was “decrease in binding”.

In the case of Cc1cc(C(C)(C)CC(C)(C)C)ccc1OCCOCC[N+](C)(C)Cc1ccccc1 [A2, Methyl benzethonium], the “Percentage of compound bound” value [1] is reported as 60–95%, the “Decrease of half-time of fibrillation compared to α-syn alone” value (α-syn; 20 μM α-syn, 20 μM compound) is reported as roughly 2 fold and the “Apparent size (Rh) of αSOs-Alexa488” value [2] is reported as roughly 10 nm. For the same compound, the Kd (αSO) was 120 ± 90 µM, the “αSO binding signal in sandwich ELISA vs positive control” value (αSO) was “decrease in binding” and the “Percentage of α-syn monomers in αSO sample” value (αSOs-Alexa488 [3]) was 23%.

For CC(C)(C)CC(C)(C)c1ccc(OCCOCC[N+](C)(C)Cc2ccccc2)cc1 [A3, Benzethonium], the “Percentage of compound bound” value [1] was 60–95%.

In the case of C=C1c2cccc(O)c2C(=O)C2=C(O)[C@]3(O)C(=O)C(C(N)=O)=C(O)[C@@H](N(C)C)[C@@H]3[C@@H](O)[C@H]12 [A5, Metacycline], the “Effect on α-syn fibril formation (ThT, words)” value (α-syn; 20 μM α-syn, 20 μM compound) is reported as “completely inhibited fibril formation”, the “αSO binding signal in sandwich ELISA vs positive control” value (αSO) is reported as “slightly higher absorption than the positive control” and the “Response in dose-response calcein assay” value [4] is reported as “failed to show any response”.

For COc1ccccc1CNCCCCCCNCCCCCCCCNCCCCCCNCc1ccccc1OC [A6, Methoctramine], the “Percentage of compound bound” value [1] was 60–95%, the “Effect on lag phase of α-syn aggregation” value (α-syn; 20 μM α-syn, 20 μM compound) was “modestly increased the lag phase” and the “Apparent size (Rh) of αSOs-Alexa488” value [2] was roughly 10 nm. The “αSO binding signal in sandwich ELISA vs positive control” value (αSO) was “to a smaller extent” and the IC50 [4] was 0.32 µM.

In the case of CC(C)=CC[C@@H](O)C1=CC(=O)c2c(O)ccc(O)c2C1=O [A7, Shikonin], the “αSO binding signal in sandwich ELISA vs positive control” value (αSO) is reported as “slightly higher absorption than the positive control” and the “Response in dose-response calcein assay” value [4] is reported as “failed to show any response”.

For N.N.[Cl][Pt][Cl] [A8, Cisplatin], the “Percentage of compound bound” value [1] was 0–2%.

In the case of N.N.O=C([O-])C1(C(=O)[O-])CCC1.[Pt+2] [A9, Carboplatin], the “Response in dose-response calcein assay” value [4] is reported as “failed to show any response”.

In the case of O=C(O[C@@H]1Cc2c(O)cc(O)cc2O[C@@H]1c1cc(O)c(O)c(O)c1)c1cc(O)c(O)c(O)c1 [EGCG], the “Percentage of compound bound” value [1] is listed as 0–2%, the “Effect on α-syn fibril formation (ThT, words)” value (α-syn; 20 μM α-syn, 20 μM compound) is listed as “completely inhibited fibril formation” and the “Inhibition of calcein release” value ([5]; positive control) is listed as “completely inhibits calcein release”. For the same compound, the “Apparent size (Rh) of αSOs-Alexa488” value [2] was 50 nm and the “Percentage of α-syn monomers in αSO sample” value (αSOs-Alexa488 [3]) was 22%.

In the case of C/C=C1/[C@H](O[C@@H]2O[C@H](CO)[C@@H](O)[C@H](O)[C@H]2O)OC=C(C(=O)OC)[C@H]1CC(=O)OCCc1ccc(O)c(O)c1 [oleuropein], the “Inhibition of calcein release” value ([5]; negative control) is listed as “weak or no inhibitory effect”.

For CC(C)[C@@H](CC[C@@H](C)[C@H]1CC[C@H]2[C@@H]3[C@H](O)C[C@H]4C[C@@H](NCCCNCCCCN)CC[C@]4(C)[C@H]3CC[C@]12C)OS(=O)(=O)O [squalamine], the “Suppression of αSO toxicity” value [6] is listed as “completely suppress the toxicity of αSOs”.

For Cofilin-1 [Cfl1], the “Change in Rh of αSOs-Alexa488 on titration with ligand” value (αSOs-Alexa488 [7]; up to 150 μM ligand, in solution) was “little change in Rh” and the “Effect of protein ligand on α-syn aggregation (ThT, words)” value (α-syn; 20 μM α-syn monomer, 1 μM ligand) was “dramatic reduction in aggregation”.

For Serine-tRNA ligase [SerRS], the “Rh of αSOs-Alexa488 after binding to ligand” value (αSOs-Alexa488 [7]; 100–150 μM ligand, αSO alone 10 nm) was roughly 12.5 nm and the “Reduction of half-time of α-syn fibrillation” value (α-syn; 20 μM α-syn, 1 μM ligand) was “more than 3 fold”.
